Literature values as cited in patent publication US8952004B2, “CXCR3 receptor antagonists” (Boehringer Ingelheim International GmbH, priority 2010, dated 2015).

Test system: atherosclerotic lesion formation
Details: LDL receptor knockout model, dosed prophylactically

## CCOc1ccc(-n2c(C(C)N(Cc3cccnc3)C(=O)Cc3ccc(F)c(C(F)(F)F)c3)nc3ncccc3c2=O)cc1 (stereo not shown) [NBI-74330]
  atherosclerotic lesion formation: significantly attenuated atherosclerotic lesion formation
